Data on one compound can be found in article PMC7996098, “High-Level Extracellular Expression of a New β-N-Acetylglucosaminidase in Escherichia coli for Producing GlcNAc” (Frontiers in Microbiology, 2021).

This assay addresses T1, BlNagZ (Bacillus licheniformis, UniProt Q65P58).
T1 construct: gene ybbD; pET26b, PelB signal peptide (excised on secretion) fused to ORF amplified from its start codon; His-tag purified; E. coli BL21(DE3) supernatant
In words: p-nitrophenol release, absorbance […] nm. Format: biochemical. The conditions noted are these: substrate of the Km not given, taken from the standard assay; pH 5.5, 60 °C (standard assay), 50 mM phosphate; read-out: Km (μ mol/L).

T1 sequence (Q65P58 entry or part of it): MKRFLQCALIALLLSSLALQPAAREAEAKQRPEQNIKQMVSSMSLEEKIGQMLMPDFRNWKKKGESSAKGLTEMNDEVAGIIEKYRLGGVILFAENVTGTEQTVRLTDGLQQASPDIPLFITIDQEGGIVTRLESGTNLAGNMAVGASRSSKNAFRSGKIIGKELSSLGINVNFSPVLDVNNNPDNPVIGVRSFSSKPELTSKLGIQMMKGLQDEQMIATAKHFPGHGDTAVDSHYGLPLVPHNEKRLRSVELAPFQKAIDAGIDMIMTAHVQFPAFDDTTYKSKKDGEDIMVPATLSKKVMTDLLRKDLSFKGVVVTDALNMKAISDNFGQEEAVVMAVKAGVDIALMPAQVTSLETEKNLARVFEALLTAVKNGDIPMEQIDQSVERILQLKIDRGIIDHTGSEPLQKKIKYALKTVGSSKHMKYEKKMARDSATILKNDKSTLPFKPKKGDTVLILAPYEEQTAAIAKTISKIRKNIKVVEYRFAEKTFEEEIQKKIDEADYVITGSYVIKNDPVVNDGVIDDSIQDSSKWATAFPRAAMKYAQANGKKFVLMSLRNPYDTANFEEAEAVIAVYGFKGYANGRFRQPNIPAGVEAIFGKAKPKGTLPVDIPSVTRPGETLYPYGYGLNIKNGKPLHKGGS

`CC(=O)N[C@H]1[C@H](Oc2ccc([N+](=O)[O-])cc2)O[C@H](CO)[C@@H](O)[C@@H]1O` [pNP-β-D-GlcNAc]: the Km amounted to 0.000932 mol/L.
